The values below come from PubChem BioAssay (NCI).

The term GI50 denotes the concentration at which growth is held to half of that of the control. By TGI is commonly meant the concentration at which net growth stops. High values mean lower sensitivity of the cells, low ones greater sensitivity of the cells.

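Grown in 96-well plates, cells were treated for 48 hours with each compound at five concentrations. Insufficient inhibition: endpoint recorded as highest concentration tested. At the GI50, growth is halved. TGI denotes the concentration required for complete inhibition of growth.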

Holding throughout (test): DTP human tumour cell line panel, 48 h
The test system of assay [1] is NCI-H460 lung.
In assay [2] the test system is NCI-H226 lung.
The test system of assay [3] is MDA-MB-231 breast.
The subject of assay [4] is SK-OV-3 ovarian.
Assay [5] relates to SR leukemia.
Assay [6] relates to SNB-75 CNS.
For assay [7], the system named is SW-620 colon.
Assay [8] relates to MCF7 breast.
Assay [9] relates to UACC-257 melanoma.
Assay [10] relates to A549 NSCLC.

As to `Cc1ccc(-n2c(-c3ccc(Cl)cc3)cs/c2=N\NC(=O)COc2n[nH]c(=O)c3ccccc23)cc1`, the GI50 in assay [1] is greater than 100 µM; in assay [2], 39.6 µM; in assay [3], 68.4 µM; in [4], 57.9 µM; in [5], greater than 100 µM; in assay [6], 20.7 µM. For the same molecule, the GI50 was greater than 100 µM in assay [7], 70.7 µM in [8], 80.2 µM in assay [9] and greater than 100 µM in assay [10]. Further, the TGI in [1] is greater than 100 µM; in [2], greater than 100 µM; in assay [3], greater than 100 µM; in [4], greater than 100 µM; in [5] it was greater than 100 µM; in [6] it was 65.9 µM. The TGI in assay [7], in assay [8], in assay [9] and in [10] was greater than 100 µM throughout.

For the molecule `C=C1CO[C@@H]2C[C@@H]1CCC1(C)OC1CC/C(C)=C/CC[C@@]2(C)O` (some centres undefined), the GI50 in assay [1] was 13.9 µM; in assay [2], greater than 100 µM; in assay [3], 14.9 µM; in assay [4], greater than 100 µM; in assay [5], 1.29 µM; in assay [6] it was 21.7 µM. Moreover, the GI50 in [7] was 15.8 µM; in assay [8] it was 24.7 µM; in assay [9] it was 44.7 µM; in assay [10], 17 µM. Besides, the TGI in assay [1] was 30.7 µM; in assay [2], greater than 100 µM; in [3] it was 36.1 µM; in assay [4] it was greater than 100 µM; in [5], 2.72 µM; in assay [6], 97.4 µM. The TGI in assay [7] was 38.4 µM; in assay [8], greater than 60.6 µM; in [9] it was greater than 100 µM; in assay [10] it was 34.9 µM.

Regarding `COc1cccc(C2C(C#N)=C(N)Oc3cc(OC)ccc32)c1` (centres undefined), the GI50 in [1] was 0.0353 µM; in assay [2] it was 0.896 µM; in [3], 0.0519 µM; in assay [4], 0.0478 µM; in assay [5], 0.0256 µM; in assay [6], 0.0263 µM. Further, the GI50 is 0.035 µM in assay [7], 0.0211 µM in assay [8], 1.1 µM in [9] and 0.0496 µM in [10]. Moreover, the total growth inhibition concentration (TGI) was 3.64 µM in assay [1]; greater than 100 µM in [2]; 1.49 µM in assay [3]; greater than 33.8 µM in [5]; greater than 49.6 µM in assay [6]; greater than 100 µM in assay [7]. Also, the TGI in assay [8] is greater than 72.4 µM; in assay [9], greater than 83.9 µM; in assay [10], greater than 100 µM.

For the molecule `CC(C)(CCC(C)(C)c1ccccc1)c1ccccc1`, the TGI is 31.9 µM in [1]; 37.6 µM in assay [2]; 31.5 µM in [3]; 82.6 µM in assay [4]; 50 µM in [5]; 36.7 µM in assay [6]. In addition, the TGI was 35.2 µM in [7], 32.8 µM in assay [8], 29.2 µM in [9] and greater than 100 µM in assay [10].

Turning to `CC1(C)CC[C@]2(C(=O)O)CC[C@]3(C)[C@H](CC[C@@H]4[C@@]5(C)CCC(=O)C(C)(C)[C@@H]5CC[C@]43C)[C@H]2[C@H]1OC(=O)C(F)(F)F`, the GI50 in assay [1] was 7.65 µM; in [2], 13.5 µM; in assay [3] it was 13.5 µM; in [4] it was 13.4 µM; in [5], 3.75 µM; in assay [6], 26.4 µM. Besides, the GI50 in assay [7] is 11.6 µM; in assay [8] it was 5.02 µM; in assay [9], 10.1 µM; in [10] it was 9.66 µM. In addition, the TGI is 29.7 µM in assay [1]; 34 µM in [2]; 31.4 µM in assay [3]; 54 µM in assay [4]; 33.8 µM in assay [5]; greater than 100 µM in [6]. The TGI in [7] is 28.1 µM; in [8], 25.4 µM; in assay [9] it was 25.2 µM; in [10], 31.6 µM.

As for `C#CC#CC#CC#CC#CC#CC#CC#CCC1OC[C@H](COC(=O)O[C@@H](C(=O)O[C@H]2C[C@@]3(O)[C@@H](OC(=O)c4ccccc4)[C@@H]4[C@]5(OC(C)=O)CO[C@@H]5C[C@H](O)[C@@]4(C)C(=O)[C@H](OC(C)=O)C(=C2C)C3(C)C)[C@@H](NC(=O)c2ccccc2)c2ccccc2)O1` (some centres undefined), the GI50 is 0.123 µM in assay [1]; greater than 33.3 µM in assay [2]; 1.27 µM in assay [3]; 1.38 µM in assay [4]; 0.182 µM in assay [5]; 0.0727 µM in [6]. Besides, the GI50 in [7] is 0.261 µM; in [8], 0.0921 µM; in [9], greater than 8.84 µM; in [10], 0.295 µM. Besides, the TGI was greater than 33.3 µM in assay [1]; greater than 33.3 µM in assay [2]; greater than 33.3 µM in [3]; greater than 33.3 µM in [4]; greater than 33.3 µM in assay [5]; 0.648 µM in assay [6]. Besides, the TGI in [7], in [8], in [9] and in assay [10] was greater than 33.3 µM throughout.

Turning to `Cc1ccccc1NC(=O)c1sc2nc3c(cc2c1N)C(=O)CCC3`, the GI50 in assay [1] is 2.63 µM; in assay [2], 37.6 µM; in assay [3], 3.98 µM; in [4], 2.72 µM; in assay [5], 2.93 µM; in assay [6], 1.66 µM. The GI50 in assay [7] is 1.83 µM; in assay [8], 1.58 µM; in assay [9] it was 1.97 µM; in assay [10] it was 2.22 µM. For the same molecule, the TGI in assay [1] is 10.6 µM; in assay [2] it was greater than 100 µM; in assay [3], greater than 100 µM; in assay [4], greater than 100 µM; in assay [5], greater than 100 µM; in assay [6] it was greater than 100 µM. Besides, the TGI in [7], in assay [8], in assay [9] and in assay [10] was greater than 100 µM throughout.
